According to the supplement of paper PMC10307832:

Legend:
Experiment in all cases: relative viability (nuclei count vs DMSO), 5 days (fraction); higher = more cells survive
RU-SKI 43 = compound: CC[C@@H](C)CNCC(=O)N1CCC2=C([C@@H]1COC3=CC=CC(=C3)C)C=CS2 [RU-SKI 43]
Procedure, shortened: (§1)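 Five library-drug doses spaced by √10 were pinned onto vehicle-anchored 1536-well plates of lung cancer cell lines that had been kept overnight at 37 °C. Cells went 5 days without medium change, then were fixed, permeabilised and Hoechst-stained together, imaged at 4× and counted by MetaXpress. Viability is the ratio of treated-well to vehicle-well nuclei, taken as a median over plates. Plates required control CV below 25% and at least one doubling.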

Irinotecan = compound: CCc1c2c(nc3ccc(OC(=O)N4CCC(N5CCCCC5)CC4)cc13)-c1cc3c(c(=O)n1C2)COC(=O)[C@]3(O)CC [Irinotecan]
Procedure, shortened: as §1

MK-8033 = compound: Cn1cc(-c2cnc3ccc4ccc(CS(=O)(=O)NCc5ccccn5)cc4c(=O)c3c2)cn1 [MK-8033]
Procedure, shortened: as §1

Irinotecan + Crizotinib = compound: CCc1c2c(nc3ccc(OC(=O)N4CCC(N5CCCCC5)CC4)cc13)-c1cc3c(c(=O)n1C2)COC(=O)[C@]3(O)CC [Irinotecan] + C[C@@H](Oc1cc(-c2cnn(C3CCNCC3)c2)cnc1N)c1c(Cl)ccc(F)c1Cl [Crizotinib] (partner 1 µM)
Procedure, shortened: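 A single step with final 0.05% Triton X-100, 1% formaldehyde and 1 ug/ml Hoechst fixed the cells and stained nuclei 5 days after treatment. Lung cancer cell lines in 1536-well plates had been treated by pin tool the day after seeding with one drug alone or a fixed anchor-drug dose plus five library-drug doses (not always all listed) in √10 steps, and nuclei were counted on 4× images. Relative viability is the ratio of nuclei in treated wells to nuclei in vehicle wells, taken as the median of duplicate plates.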

Row | Cell Line | relative viability (RU-SKI 43; 0.1 µM) | relative viability (RU-SKI 43; 0.3162 µM) | relative viability (RU-SKI 43; 1 µM) | relative viability (RU-SKI 43; 3.162 µM) | relative viability (RU-SKI 43; 10 µM) | relative viability (Irinotecan; 0.6325 µM) | relative viability (Irinotecan; 2 µM) | relative viability (Irinotecan; 6.325 µM) | relative viability (Irinotecan; 20 µM) | relative viability (MK-8033; 0.02 µM) | relative viability (MK-8033; 0.06325 µM) | relative viability (MK-8033; 0.2 µM) | relative viability (MK-8033; 0.6325 µM) | relative viability (MK-8033; 2 µM) | relative viability (Irinotecan + Crizotinib; first compound 0.6325 µM) | relative viability (Irinotecan + Crizotinib; first compound 2 µM) | relative viability (Irinotecan + Crizotinib; first compound 6.325 µM) | relative viability (Irinotecan + Crizotinib; first compound 20 µM)
1 | HCC-78 | 1.01 | 0.961 | 1.2 | 0.944 | 0.911 | 0.8 | 0.686 | 0.24 | 0.326 | 0.959 | 0.895 | 0.863 | 0.982 | 0.926 | 0.353 | 0.312 | 0.222 | 0.181
2 | HCC-366 | 1.11 | 1.23 | 1.05 | 1.08 | 0.979 | 0.591 | 0.615 | 0.093 | 0.081 | 1.03 | 1.03 | 0.977 | 1.02 | 1.06 | 0.274 | 0.132 | 0.0524 | 0.0502
3 | HCC-827 | 1.06 | 1.01 | 1.1 | 1.05 | 1.06 | 0.938 | 0.779 | 0.263 | 0.296 | 1.01 | – | 1.01 | 1.01 | 1.05 | 0.487 | 0.287 | 0.282 | 0.191
4 | HOP-62 | 1.05 | 0.986 | 1.11 | 1.09 | 1.09 | 0.558 | 0.714 | 0.194 | 0.2 | 1 | 0.976 | 0.98 | 0.989 | 0.973 | 0.211 | 0.108 | 0.136 | 0.159
5 | IA-LM | 1.1 | 1.02 | 1.15 | 1.07 | 0.98 | 0.616 | 0.419 | 0.208 | 0.0921 | 0.886 | 0.933 | 0.933 | 0.93 | 0.952 | 0.774 | 0.375 | 0.195 | 0.103
6 | LC-2-ad | 0.967 | 1.02 | 1.16 | 0.963 | 0.932 | 0.47 | 0.492 | 0.299 | 0.191 | 0.953 | 0.938 | 0.936 | 1 | 0.927 | 0.359 | 0.314 | 0.258 | 0.186
7 | LCLC-97TM1 | 1.13 | 0.972 | 1.05 | 0.973 | 0.838 | 0.39 | 0.454 | 0.173 | 0.167 | 1.05 | 0.927 | 0.795 | 0.999 | 0.975 | 0.107 | 0.208 | 0.185 | 0.239
8 | LCLC-103H | 1.05 | 1.07 | 1.18 | 1.06 | 1.03 | 0.945 | 0.929 | 0.451 | 0.423 | 0.99 | 1 | 0.896 | 0.997 | 1.06 | 0.834 | 0.379 | 0.397 | 0.621
9 | LK-2 | 1.09 | 1.13 | 1.31 | 1.22 | 1.06 | 1.04 | 0.956 | 0.486 | 0.282 | 0.992 | 0.885 | 0.92 | 1.01 | 1.09 | 0.206 | 0.248 | 0.303 | 0.301
10 | LOU-NH91 | 0.971 | 0.918 | 1.03 | 0.939 | 0.932 | 0.898 | 0.971 | 0.456 | 0.385 | 0.979 | 0.712 | 0.941 | 0.937 | 0.975 | 0.718 | 0.658 | 0.368 | 0.36
11 | LU99A | 0.93 | 1.08 | 0.95 | 0.966 | 0.851 | 0.38 | 0.355 | 0.215 | 0.212 | 1.05 | 0.897 | 0.817 | 0.947 | 0.926 | 0.281 | 0.286 | 0.251 | 0.229
12 | LXF-289 | 1.05 | 1.08 | 1.02 | 1.1 | 0.999 | 0.892 | 0.965 | 0.659 | 0.265 | 1.02 | 0.983 | 0.955 | 1.16 | 0.995 | 0.726 | 0.549 | 0.247 | 0.208
13 | NCI-H522 | 1.02 | 1.05 | 1.16 | 0.982 | 1.17 | 0.694 | 0.844 | 0.52 | 0.639 | 0.983 | 0.793 | 0.954 | 1.05 | 0.959 | – | – | – | –
14 | NCI-H1395 | 0.978 | 0.928 | 1.05 | 0.899 | 0.885 | – | 0.9 | 0.504 | 0.411 | 0.941 | 0.77 | 0.812 | 0.906 | 0.867 | – | – | – | –
15 | NCI-H1623 | 1.02 | 0.958 | 1.03 | 1.06 | 0.883 | 0.866 | 0.703 | 0.275 | 0.297 | 0.87 | 0.96 | 0.839 | 0.992 | 1.02 | – | – | – | –
16 | NCI-H1648 | 0.943 | 0.809 | 1.03 | 0.853 | 0.779 | 1.03 | 0.712 | 0.637 | 0.278 | 0.724 | 0.698 | 0.846 | 0.832 | 0.956 | – | – | – | –
17 | NCI-H1793 | 0.986 | 0.939 | 1 | 0.894 | 0.755 | – | 0.905 | 0.463 | 0.227 | 0.935 | – | 0.761 | 0.792 | 0.8 | – | – | – | –
18 | NCI-H2342 | 0.895 | 0.773 | 0.972 | 1.18 | 0.989 | 0.938 | 0.97 | 1 | 0.575 | 0.988 | 1.11 | 1.12 | 1.13 | 1.13 | – | – | – | –
19 | SW 900 | 0.716 | 0.93 | 1.02 | 0.683 | 0.62 | 0.51 | 0.787 | 0.497 | 0.432 | 0.884 | 0.684 | 0.685 | 1.03 | 0.789 | – | – | – | –
